Laboratory results as given in the NIST ThermoML archive (doi:10.1021/je050414d).
Values joined by “and” are separate entries in the source; they are usually repeats but may differ in a detail not shown here. Equal values may be shown once. ± gives the expanded uncertainty stated by the source.

What was measured:
[1] = 101 kPa, Liquid; for viscosity: Capillary tube (Ostwald / Ubbelohde) method
[2] = xn = mol fraction of the nth substance listed; settings: 101 kPa, Liquid, x2 = 0; for viscosity: Capillary tube (Ostwald / Ubbelohde) method

CCOC(=O)OCC [diethyl carbonate]
[1]
Settings | mass density [kg/m3] | viscosity
293.15 K | 975 ± 1 | 0.801 ± 0.008 mPa·s and 0.8 ± 0.008 mPa·s
298.15 K | 968.97 ± 1.1 | 0.746 ± 0.008 mPa·s
303.15 K | 962.39 ± 1.1 | 0.695 ± 0.008 mPa·s
313.15 K | 952.32 ± 1.2 | 0.61 ± 0.007 mPa·s
323.15 K | 939.78 ± 1.3 | 0.541 ± 0.007 mPa·s
333.15 K | 928.69 ± 1.4 | 0.483 ± 0.007 mPa·s
343.15 K | 916.33 ± 1.6 | 0.435 ± 0.007 mPa·s
353.15 K | 905.02 ± 1.7 | 0.393 ± 0.007 mPa·s
363.15 K | 893.71 ± 1.8 | 0.358 ± 0.007 mPa·s

CO [methanol]
[1]
Settings | mass density [kg/m3] | viscosity [mPa·s]
293.15 K | 791.54 ± 2.7 | 0.582 ± 0.007
298.15 K | 786.83 ± 2.8 | 0.55 ± 0.007
303.15 K | 782.12 ± 2.8 | 0.512 ± 0.007
313.15 K | 772.6 ± 2.9 | 0.448 ± 0.007
323.15 K | 762.97 ± 3 | 0.395 ± 0.007
333.15 K | 749.69 ± 3.1 | 0.351 ± 0.007

CO [methanol] + CCOC(=O)OCC
[2]
Settings | mass density [kg/m3] | viscosity [mPa·s]
293.15 K | 791.54 ± 2.7 | 0.582 ± 0.007
298.15 K | 786.83 ± 2.8 | 0.55 ± 0.007
303.15 K | 782.12 ± 2.8 | 0.512 ± 0.007
313.15 K | 772.6 ± 2.9 | 0.448 ± 0.007
323.15 K | 762.97 ± 3 | 0.395 ± 0.007
333.15 K | 749.69 ± 3.1 | 0.351 ± 0.007

CC(C)O [propan-2-ol]
[1]
Settings | mass density [kg/m3] | viscosity [mPa·s]
293.15 K | 785.28 ± 2.8 | 2.382 ± 0.016
298.15 K | 780.69 ± 2.8 | 2.069 ± 0.014
303.15 K | 776.15 ± 2.9 | 1.743 ± 0.013
313.15 K | 766.34 ± 3 | 1.288 ± 0.01
323.15 K | 755.66 ± 3 | 1.002 ± 0.009
333.15 K | 745.51 ± 3.1 | 0.789 ± 0.008
343.15 K | 735.02 ± 3.2 | 0.626 ± 0.007

CC(C)O [propan-2-ol] + CCOC(=O)OCC
[2]
Settings | mass density [kg/m3] | viscosity [mPa·s]
293.15 K | 785.28 ± 2.8 | 2.382 ± 0.016
298.15 K | 780.69 ± 2.8 | 2.069 ± 0.014
303.15 K | 776.15 ± 2.9 | 1.743 ± 0.013
313.15 K | 766.34 ± 3 | 1.288 ± 0.01
323.15 K | 755.66 ± 3 | 1.002 ± 0.009
333.15 K | 745.51 ± 3.1 | 0.789 ± 0.008
343.15 K | 735.02 ± 3.2 | 0.626 ± 0.007

Cc1ccccc1 [toluene]
[1]
Settings | mass density [kg/m3] | viscosity [mPa·s]
298.15 K | 862.01 ± 2 | 0.554 ± 0.007
303.15 K | 858.32 ± 2.1 | 0.525 ± 0.007
313.15 K | 848.92 ± 2.2 | 0.47 ± 0.007
323.15 K | 838.75 ± 2.3 | 0.423 ± 0.007
333.15 K | 829.93 ± 2.3 | 0.385 ± 0.007
343.15 K | 820.3 ± 2.4 | 0.35 ± 0.007
353.15 K | 810.54 ± 2.5 | 0.31 ± 0.006
363.15 K | 797.68 ± 2.6 | 0.286 ± 0.006

Cc1ccccc1 [toluene] + CCOC(=O)OCC
[2]
Settings | mass density [kg/m3] | viscosity [mPa·s]
298.15 K | 862.01 ± 2 | 0.554 ± 0.007
303.15 K | 858.32 ± 2.1 | 0.525 ± 0.007
313.15 K | 848.92 ± 2.2 | 0.47 ± 0.007
323.15 K | 838.75 ± 2.3 | 0.423 ± 0.007
333.15 K | 829.93 ± 2.3 | 0.385 ± 0.007
343.15 K | 820.3 ± 2.4 | 0.35 ± 0.007
353.15 K | 810.54 ± 2.5 | 0.31 ± 0.006
363.15 K | 797.68 ± 2.6 | 0.286 ± 0.006
